These are literature values, as cited in patent US20180133147A1, “Drug Delivery Systems” (Novartis AG, priority 2013, published 2018).

Where two headings read alike, the source gives them in different places.

For octreotide pamoate, the solubility in water (25° C.) was 200 µg/mL.

Turning to pasireotide pamoate, the solubility in water is 20 µg/mL.

As to vapreotide pamoate, for the setting “PBS pH 7.4”, the “solubility in phosphate buffer saline” value is 20 to 40 µg/mL.
